Data reported in paper PMC9851200, “Multiparameter phenotypic screening for endogenous TFEB and TFE3 translocation identifies novel chemical series modulating lysosome function” (Autophagy, 2022).

Tests used:
Assay type in all cases: binding
[1] = biological target: kinases (KINOMEscan panel) (Homo sapiens, UniProt Q15746); conditions: kinase MYLK; NEW KINOMEscan
[2] = biological target: kinases (KINOMEscan panel) (Homo sapiens, UniProt Q9UKE5); conditions: TNIK; NEW KINOMEscan
[3] = biological target: kinases (KINOMEscan panel) (Homo sapiens, UniProt Q00537); conditions: kinase CDK17; NEW KINOMEscan
[4] = biological target: T1, kinases (KINOMEscan panel) (Homo sapiens, UniProt P33981); conditions: NEW KINOMEscan
T1 sequence (P33981 1-857): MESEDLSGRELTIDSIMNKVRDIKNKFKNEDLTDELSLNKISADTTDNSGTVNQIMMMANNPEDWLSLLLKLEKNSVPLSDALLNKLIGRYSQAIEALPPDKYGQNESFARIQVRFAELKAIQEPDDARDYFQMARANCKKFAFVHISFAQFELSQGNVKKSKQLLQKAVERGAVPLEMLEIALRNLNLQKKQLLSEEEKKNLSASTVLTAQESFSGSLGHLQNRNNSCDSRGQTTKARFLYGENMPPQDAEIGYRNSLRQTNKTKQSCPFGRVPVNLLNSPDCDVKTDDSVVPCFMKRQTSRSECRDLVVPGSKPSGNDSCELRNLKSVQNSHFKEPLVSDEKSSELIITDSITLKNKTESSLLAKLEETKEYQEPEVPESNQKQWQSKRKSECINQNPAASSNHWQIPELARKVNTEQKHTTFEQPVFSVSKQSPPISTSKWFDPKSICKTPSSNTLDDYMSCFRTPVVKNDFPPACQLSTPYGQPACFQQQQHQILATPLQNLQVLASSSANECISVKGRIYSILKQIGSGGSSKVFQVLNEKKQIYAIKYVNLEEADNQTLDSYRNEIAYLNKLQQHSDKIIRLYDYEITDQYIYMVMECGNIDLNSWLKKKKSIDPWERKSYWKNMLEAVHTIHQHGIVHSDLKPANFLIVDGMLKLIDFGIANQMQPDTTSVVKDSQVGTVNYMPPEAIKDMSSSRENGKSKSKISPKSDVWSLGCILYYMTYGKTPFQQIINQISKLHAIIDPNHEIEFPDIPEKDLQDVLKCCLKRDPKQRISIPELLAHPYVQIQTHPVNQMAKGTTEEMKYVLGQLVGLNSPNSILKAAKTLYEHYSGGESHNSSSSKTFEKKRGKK

[5] = biological target: kinases (KINOMEscan panel) (Homo sapiens, UniProt Q96RR4); conditions: CAMKK2; NEW KINOMEscan
[6] = biological target: kinases (KINOMEscan panel) (Homo sapiens, UniProt P27037); conditions: ACVR2A; NEW KINOMEscan
[7] = biological target: T2, kinases (KINOMEscan panel) (Homo sapiens, UniProt P52333); conditions: kinase JAK3(JH1domain-catalytic); NEW KINOMEscan
T2 sequence (P52333 1-1124): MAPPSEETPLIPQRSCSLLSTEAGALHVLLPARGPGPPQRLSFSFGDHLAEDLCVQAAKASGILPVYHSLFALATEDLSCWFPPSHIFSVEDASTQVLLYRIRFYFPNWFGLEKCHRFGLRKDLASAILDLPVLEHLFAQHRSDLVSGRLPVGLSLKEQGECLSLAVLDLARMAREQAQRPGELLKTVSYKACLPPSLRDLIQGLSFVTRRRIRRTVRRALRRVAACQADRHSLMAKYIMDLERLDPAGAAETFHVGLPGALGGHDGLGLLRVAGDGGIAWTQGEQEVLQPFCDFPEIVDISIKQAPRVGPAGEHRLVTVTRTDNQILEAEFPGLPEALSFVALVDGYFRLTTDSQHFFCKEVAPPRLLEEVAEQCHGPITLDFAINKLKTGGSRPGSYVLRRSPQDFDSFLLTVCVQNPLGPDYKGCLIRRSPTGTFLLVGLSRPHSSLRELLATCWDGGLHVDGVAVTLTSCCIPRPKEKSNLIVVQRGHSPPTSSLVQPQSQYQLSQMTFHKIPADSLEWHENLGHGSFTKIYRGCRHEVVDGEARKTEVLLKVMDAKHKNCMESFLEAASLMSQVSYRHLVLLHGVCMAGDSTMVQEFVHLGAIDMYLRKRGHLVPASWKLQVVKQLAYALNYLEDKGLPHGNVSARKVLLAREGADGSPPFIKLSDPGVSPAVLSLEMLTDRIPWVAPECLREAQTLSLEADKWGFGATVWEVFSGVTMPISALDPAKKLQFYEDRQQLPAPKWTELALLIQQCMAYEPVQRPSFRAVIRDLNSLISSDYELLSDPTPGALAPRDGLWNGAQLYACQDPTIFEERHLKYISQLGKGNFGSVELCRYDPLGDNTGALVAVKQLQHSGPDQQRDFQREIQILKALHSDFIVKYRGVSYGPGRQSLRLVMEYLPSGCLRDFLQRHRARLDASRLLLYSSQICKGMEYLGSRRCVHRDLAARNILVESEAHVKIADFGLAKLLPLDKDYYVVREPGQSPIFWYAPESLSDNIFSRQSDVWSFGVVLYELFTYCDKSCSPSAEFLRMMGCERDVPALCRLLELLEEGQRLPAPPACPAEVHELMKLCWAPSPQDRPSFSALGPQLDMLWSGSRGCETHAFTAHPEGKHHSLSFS

Sequence of kinases (KINOMEscan panel) (Homo sapiens, UniProt Q00537) (Q00537 whole entry): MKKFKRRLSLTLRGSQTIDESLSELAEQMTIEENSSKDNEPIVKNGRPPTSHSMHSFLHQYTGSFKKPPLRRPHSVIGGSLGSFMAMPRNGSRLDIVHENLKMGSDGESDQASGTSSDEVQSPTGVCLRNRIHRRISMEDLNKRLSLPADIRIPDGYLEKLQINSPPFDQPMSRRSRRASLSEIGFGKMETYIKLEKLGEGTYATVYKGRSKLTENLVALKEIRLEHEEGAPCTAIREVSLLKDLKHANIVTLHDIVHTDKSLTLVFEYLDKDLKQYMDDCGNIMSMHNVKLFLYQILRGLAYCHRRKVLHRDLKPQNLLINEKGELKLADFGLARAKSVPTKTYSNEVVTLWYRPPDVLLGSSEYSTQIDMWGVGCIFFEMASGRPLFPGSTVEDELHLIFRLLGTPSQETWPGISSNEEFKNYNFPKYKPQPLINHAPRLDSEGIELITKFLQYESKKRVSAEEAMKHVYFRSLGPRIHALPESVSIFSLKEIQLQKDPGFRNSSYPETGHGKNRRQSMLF
Sequence of kinases (KINOMEscan panel) (Homo sapiens, UniProt P27037) (P27037 20-513): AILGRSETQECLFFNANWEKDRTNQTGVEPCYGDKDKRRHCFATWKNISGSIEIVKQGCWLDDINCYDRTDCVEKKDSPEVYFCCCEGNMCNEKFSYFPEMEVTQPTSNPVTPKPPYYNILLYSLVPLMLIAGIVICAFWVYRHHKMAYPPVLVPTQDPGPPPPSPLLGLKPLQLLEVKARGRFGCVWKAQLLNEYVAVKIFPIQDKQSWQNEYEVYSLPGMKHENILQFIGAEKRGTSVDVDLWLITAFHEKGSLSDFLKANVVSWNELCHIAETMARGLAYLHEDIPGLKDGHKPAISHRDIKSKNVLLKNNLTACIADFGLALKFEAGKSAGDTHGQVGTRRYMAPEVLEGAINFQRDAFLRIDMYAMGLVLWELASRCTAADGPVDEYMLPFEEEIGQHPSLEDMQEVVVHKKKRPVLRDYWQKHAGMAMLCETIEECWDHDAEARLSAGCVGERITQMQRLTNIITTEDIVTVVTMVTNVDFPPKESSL
Sequence of kinases (KINOMEscan panel) (Homo sapiens, UniProt Q9UKE5) (Q9UKE5 whole entry): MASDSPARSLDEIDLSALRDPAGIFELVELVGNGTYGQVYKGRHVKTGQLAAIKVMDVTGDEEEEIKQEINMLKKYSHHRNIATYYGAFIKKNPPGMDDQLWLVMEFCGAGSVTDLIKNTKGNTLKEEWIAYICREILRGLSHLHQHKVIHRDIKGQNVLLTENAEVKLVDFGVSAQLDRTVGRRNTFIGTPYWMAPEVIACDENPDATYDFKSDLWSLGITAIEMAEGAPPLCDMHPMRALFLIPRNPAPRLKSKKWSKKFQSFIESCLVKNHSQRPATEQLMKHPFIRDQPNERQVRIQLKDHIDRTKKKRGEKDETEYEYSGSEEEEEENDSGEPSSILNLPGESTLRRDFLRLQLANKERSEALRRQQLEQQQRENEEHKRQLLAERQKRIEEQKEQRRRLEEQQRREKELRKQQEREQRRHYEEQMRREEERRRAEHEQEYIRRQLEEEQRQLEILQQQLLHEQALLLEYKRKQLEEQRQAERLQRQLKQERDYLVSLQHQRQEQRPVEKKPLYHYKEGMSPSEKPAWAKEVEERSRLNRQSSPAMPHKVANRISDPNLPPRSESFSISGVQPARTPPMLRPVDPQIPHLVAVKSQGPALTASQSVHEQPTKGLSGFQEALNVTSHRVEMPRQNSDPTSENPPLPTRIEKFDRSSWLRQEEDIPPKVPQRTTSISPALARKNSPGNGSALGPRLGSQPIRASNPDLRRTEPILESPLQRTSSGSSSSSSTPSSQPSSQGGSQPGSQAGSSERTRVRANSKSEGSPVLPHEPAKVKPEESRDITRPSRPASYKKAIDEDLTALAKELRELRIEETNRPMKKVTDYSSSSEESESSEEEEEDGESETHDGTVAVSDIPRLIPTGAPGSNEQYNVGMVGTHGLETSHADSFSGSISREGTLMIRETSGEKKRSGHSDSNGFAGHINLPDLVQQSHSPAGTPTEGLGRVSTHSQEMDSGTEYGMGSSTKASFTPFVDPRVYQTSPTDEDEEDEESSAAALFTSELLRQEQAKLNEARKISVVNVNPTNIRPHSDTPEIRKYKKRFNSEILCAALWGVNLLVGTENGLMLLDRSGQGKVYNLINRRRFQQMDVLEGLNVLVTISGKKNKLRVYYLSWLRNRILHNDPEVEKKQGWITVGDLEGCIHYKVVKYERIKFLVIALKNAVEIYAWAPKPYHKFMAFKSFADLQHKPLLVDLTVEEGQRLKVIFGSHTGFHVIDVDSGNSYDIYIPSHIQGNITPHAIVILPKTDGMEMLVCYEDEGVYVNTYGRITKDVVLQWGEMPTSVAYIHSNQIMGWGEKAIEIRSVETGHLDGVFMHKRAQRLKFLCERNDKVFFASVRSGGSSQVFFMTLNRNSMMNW
Sequence of kinases (KINOMEscan panel) (Homo sapiens, UniProt Q96RR4) (Q96RR4 whole entry): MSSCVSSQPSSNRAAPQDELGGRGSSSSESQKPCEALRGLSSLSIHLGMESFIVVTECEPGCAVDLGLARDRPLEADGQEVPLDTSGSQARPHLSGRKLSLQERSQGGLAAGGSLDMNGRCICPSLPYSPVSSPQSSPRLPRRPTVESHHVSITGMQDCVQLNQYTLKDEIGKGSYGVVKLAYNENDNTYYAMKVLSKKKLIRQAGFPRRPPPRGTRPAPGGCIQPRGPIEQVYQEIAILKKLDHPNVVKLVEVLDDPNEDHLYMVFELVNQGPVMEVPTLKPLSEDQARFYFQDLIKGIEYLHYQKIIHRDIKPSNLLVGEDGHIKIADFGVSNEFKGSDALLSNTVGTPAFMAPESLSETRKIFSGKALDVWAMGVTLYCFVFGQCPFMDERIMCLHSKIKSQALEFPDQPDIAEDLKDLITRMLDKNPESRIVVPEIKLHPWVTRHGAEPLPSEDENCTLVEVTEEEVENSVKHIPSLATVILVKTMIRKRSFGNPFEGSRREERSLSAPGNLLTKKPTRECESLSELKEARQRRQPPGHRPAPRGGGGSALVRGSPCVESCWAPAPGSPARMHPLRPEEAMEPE
Sequence of kinases (KINOMEscan panel) (Homo sapiens, UniProt Q15746) (Q15746 whole entry): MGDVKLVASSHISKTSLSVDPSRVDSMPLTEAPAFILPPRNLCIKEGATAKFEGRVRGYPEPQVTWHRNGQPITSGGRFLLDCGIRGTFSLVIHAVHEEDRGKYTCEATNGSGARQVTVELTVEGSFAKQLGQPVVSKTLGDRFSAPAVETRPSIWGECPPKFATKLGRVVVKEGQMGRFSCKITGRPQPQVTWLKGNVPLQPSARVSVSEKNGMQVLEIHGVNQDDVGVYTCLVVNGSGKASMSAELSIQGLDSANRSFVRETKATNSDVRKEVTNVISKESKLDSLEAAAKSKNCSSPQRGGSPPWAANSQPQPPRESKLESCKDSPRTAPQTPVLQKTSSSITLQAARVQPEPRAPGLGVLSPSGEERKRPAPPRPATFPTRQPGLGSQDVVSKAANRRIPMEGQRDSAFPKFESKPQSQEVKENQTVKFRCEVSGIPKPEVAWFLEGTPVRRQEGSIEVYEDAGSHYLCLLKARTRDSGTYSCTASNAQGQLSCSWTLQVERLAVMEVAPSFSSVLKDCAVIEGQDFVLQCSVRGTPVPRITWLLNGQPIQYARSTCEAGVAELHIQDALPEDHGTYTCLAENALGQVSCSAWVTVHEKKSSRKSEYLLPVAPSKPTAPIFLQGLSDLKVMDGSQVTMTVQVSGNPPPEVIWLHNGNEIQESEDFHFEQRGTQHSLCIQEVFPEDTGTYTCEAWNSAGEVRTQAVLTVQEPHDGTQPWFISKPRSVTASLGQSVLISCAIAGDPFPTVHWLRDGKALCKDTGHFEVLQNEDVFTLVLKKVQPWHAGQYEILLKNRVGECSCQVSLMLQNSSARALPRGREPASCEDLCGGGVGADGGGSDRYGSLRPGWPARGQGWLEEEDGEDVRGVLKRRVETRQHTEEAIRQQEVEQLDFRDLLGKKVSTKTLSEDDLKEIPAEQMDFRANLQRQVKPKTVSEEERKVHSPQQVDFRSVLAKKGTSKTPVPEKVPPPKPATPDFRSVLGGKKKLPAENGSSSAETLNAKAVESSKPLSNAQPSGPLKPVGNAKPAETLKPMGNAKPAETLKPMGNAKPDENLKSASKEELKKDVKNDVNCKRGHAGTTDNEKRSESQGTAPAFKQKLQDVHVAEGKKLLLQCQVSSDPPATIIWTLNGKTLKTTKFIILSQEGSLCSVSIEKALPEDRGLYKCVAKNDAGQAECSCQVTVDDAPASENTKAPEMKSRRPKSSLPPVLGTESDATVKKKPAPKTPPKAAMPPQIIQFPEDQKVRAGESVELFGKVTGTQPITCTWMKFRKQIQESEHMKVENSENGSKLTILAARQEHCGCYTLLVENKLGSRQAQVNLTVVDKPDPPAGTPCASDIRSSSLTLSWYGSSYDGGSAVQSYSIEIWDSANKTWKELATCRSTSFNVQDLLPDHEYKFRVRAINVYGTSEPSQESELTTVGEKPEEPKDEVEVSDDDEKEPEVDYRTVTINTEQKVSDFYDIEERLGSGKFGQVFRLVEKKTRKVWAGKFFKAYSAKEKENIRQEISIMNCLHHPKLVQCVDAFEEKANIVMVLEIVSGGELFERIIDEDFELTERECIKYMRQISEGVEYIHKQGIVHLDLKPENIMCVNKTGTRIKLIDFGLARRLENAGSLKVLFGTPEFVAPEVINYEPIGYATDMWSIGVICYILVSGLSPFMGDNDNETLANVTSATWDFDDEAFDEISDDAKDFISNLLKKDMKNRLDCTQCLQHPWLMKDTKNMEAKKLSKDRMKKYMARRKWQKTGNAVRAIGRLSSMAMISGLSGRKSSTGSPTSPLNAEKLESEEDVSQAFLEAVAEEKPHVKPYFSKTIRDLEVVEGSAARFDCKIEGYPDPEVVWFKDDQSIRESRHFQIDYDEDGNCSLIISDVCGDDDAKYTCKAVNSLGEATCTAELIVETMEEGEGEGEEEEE

Compound | KINOMEscan MYLK [1] | KINOMEscan TNIK [2] | KINOMEscan CDK17 [3] | KINOMEscan TTK [4] | KINOMEscan CAMKK2 [5] | KINOMEscan ACVR2A [6] | KINOMEscan JAK3(JH1domain-catalytic) [7]
Cc1cccc(-c2nc(Nc3ccc4nn(C)cc4c3)c3ccccc3n2)n1 [NK167] | 19 | 0 | 1 | 17 | 6 | 0 | 0
Cc1cccc(-c2nc(N(C)c3ccc4ncsc4c3)c3ccccc3n2)n1 [NK-161] | 3 | 0 | 0 | 26 | 9 | 0 | 0
